Test results taken from patent US9040528B2, “Chemical compounds 542” (AstraZeneca AB, priority 2008, dated 2015).
Like-named read-outs stand apart in the source and are kept apart here.

Target: Escherichia coli DNA gyrase A/B tetramer (Escherichia coli (strain K12), UniProt P0AES4+P0AES6)
Assay: DNA gyrase supercoiling activity fluorescence polarisation assay
Assay type: biochemical
Procedure, shortened: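 Supercoiling reactions quenched with 40 nM 5′-BODIPY-FL triplex-forming oligonucleotide probe in pH 3.5 NaCl/sodium acetate buffer; after 60 min, fluorescence anisotropy read (ex 485/em 535 nm). IC50 by nonlinear regression, normalised to 0.8% DMSO (100% activity) and 5 μM ciprofloxacin (0% activity).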

[1] = 5 nM enzyme, relaxed plasmid, 0.3 mM ATP, ambient temperature, read-out: E. coli DNA gyrase supercoiling IC50

Row | Compound | IC50 [1] [nM] | IC50 [nM]
1 | C[C@@H]1CN2c3c(cc4c(-c5cncc(Cl)n5)noc4c3F)CC3(C(=O)NC(=O)NC3=O)[C@H]2[C@H](C)O1 (relative stereo) [Example 79, (2R,4S,4aS)-rel-8-(6-chloropyrazin-2-yl)-11-fluoro-2,4-dimethyl-2,4,4a,6-tetrahydro-1H,1′H-spiro[isoxazolo[4,5-g][1,4]oxazino[4,3-a]quinoline-5,5′-pyrimidine]-2′,4′,6′(3′H)-trione] | 800 | 
2 | C[C@@H]1CN2c3c(cc4c(C(=O)N5CCOCC5)noc4c3F)CC3(C(=O)NC(=O)NC3=O)[C@H]2[C@H](C)O1 (relative stereo) [Example 135, (2R,4S,4aS)-rel-11-fluoro-2,4-dimethyl-8-(morpholine-4-carbonyl)-2,4,4a,6-tetrahydro-1H,1′H-spiro[isoxazolo[4,5-g][1,4]oxazino[4,3-a]quinoline-5,5′-pyrimidine]-2′,4′,6′(3′H)-trione] | 3300 | 
3 | C[C@@H]1CN2c3c(cc4c(-c5ccncn5)noc4c3Cl)CC3(C(=O)NC(=O)NC3=O)[C@H]2[C@H](C)O1 (relative stereo) [Example 43, (2R,4S,4aS)-rel-11-chloro-2,4-dimethyl-8-(pyrimidin-4-yl)-1,2,4,4a-tetrahydro-2′H,6H-spiro[1,4-oxazino[4,3-a][1,2]oxazolo[4,5-g]quinoline-5,5′-pyrimidine]-2′,4′,6′(1′H,3′H)-trione] | 500 | 
4 | C[C@@H]1CN2c3c(cc4c(N5CCNCC5)noc4c3F)CC3(C(=O)NC(=O)NC3=O)[C@H]2[C@H](C)O1 (relative stereo) [Example 179, (2R,4S,4aS)-rel-11-fluoro-2,4-dimethyl-8-(piperazin-1-yl)-1,2,4,4a-tetrahydro-2′H,6H-spiro[isoxazolo[4,5-g][1,4]oxazino[4,3-a]quinoline-5,5′-pyrimidine]-2′,4′,6′(1′H,3′H)-trione] | 2000 | 
5 | CCOC(=O)c1cnn(-c2noc3c(F)c4c(cc23)CC2(C(=O)NC(=O)NC2=O)[C@H]2[C@H](C)O[C@H](C)CN42)c1 (relative stereo) [Example 37, ethyl 1-[(2R,4S,4aS)-rel-11-fluoro-2,4-dimethyl-2′,4′,6′-trioxo-1,1′,2,3′,4,4′,4a,6′-octahydro-2′H,6H-spiro[1,4-oxazino[4,3-a][1,2]oxazolo[4,5-g]quinoline-5,5′-pyrimidin]-8-yl]-1H-pyrazole-4-carboxylate] | 8500 | 
6 | COCC(COC)(COC)NC(=O)c1noc2c(F)c3c(cc12)CC1(C(=O)NC(=O)NC1=O)[C@H]1[C@H](C)O[C@H](C)CN31 (relative stereo) [Example 163, (2R,4S,4aS)-rel-N-(1,3-dimethoxy-2-(methoxymethyl)propan-2-yl)-11-fluoro-2,4-dimethyl-2′,4′,6′-trioxo-2,2′,3′,4,4a,4′,6,6′-octahydro-1H,1′H-spiro[isoxazolo[4,5-g][1,4]oxazino[4,3-a]quinoline-5,5′-pyrimidine]-8-carboxamide] | 17000 | 
7 | C[C@@H]1CN2c3c(cc4c(OCc5ccccc5)noc4c3F)CC3(C(=O)NC(=O)NC3=O)[C@H]2[C@H](C)O1 (relative stereo) [Example 52, (2R,4S,4aS)-rel-8-(benzyloxy)-11-fluoro-2,4-dimethyl-1,2,4,4a-tetrahydro-2′H,6H-spiro[1,4-oxazino[4,3-a][1,2]oxazolo[4,5-g]quinoline-5,5′-pyrimidine]-2′,4′,6′(1′H,3′H)-trione] | 2400 | 
8 | Cc1cc(C)n(-c2noc3c(F)c4c(cc23)CC2(C(=O)NC(=O)NC2=O)[C@H]2[C@H](C)O[C@H](C)CN42)n1 (relative stereo) [Example 63, (2R,4S,4aS)-rel-8-(3,5-dimethyl-1H-pyrazol-1-yl)-11-fluoro-2,4-dimethyl-1,2,4,4a-tetrahydro-2′H,6H-spiro[1,4-oxazino[4,3-a][1,2]oxazolo[4,5-g]quinoline-5,5′-pyrimidine]-2′,4′,6′(1′H,3′H)-trione] | 2700 | 
9 | C[C@@H]1CN2c3c(cc4c(-c5scnc5C(=O)N5CCOCC5)noc4c3F)CC3(C(=O)NC(=O)NC3=O)[C@H]2[C@H](C)O1 (relative stereo) [Example 85, (2R,4S,4aS)-rel-11-fluoro-2,4-dimethyl-8-[4-(morpholin-4-ylcarbonyl)-1,3-thiazol-5-yl]-1,2,4,4a-tetrahydro-2′H,6H-spiro[1,4-oxazino[4,3-a][1,2]oxazolo[4,5-g]quinoline-5,5′-pyrimidine]-2′,4′,6′(1′H,3′H)-trione] | 17000 | 
10 | COc1cncc(-c2noc3c(F)c4c(cc23)CC2(C(=O)NC(=O)NC2=O)[C@H]2[C@H](C)O[C@H](C)CN42)n1 [Example 167, (2R,4S,4aS)-11-fluoro-8-(6-methoxypyrazin-2-yl)-2,4-dimethyl-2,4,4a,6-tetrahydro-1H,1′H-spiro[isoxazolo[4,5-g][1,4]oxazino[4,3-a]quinoline-5,5′-pyrimidine]-2′,4′,6′(3′H)-trione] | 1100 | 
11 | COC1CCN(C(=O)c2noc3c(F)c4c(cc23)CC2(C(=O)NC(=O)NC2=O)[C@H]2[C@H](C)O[C@H](C)CN42)CC1 (relative stereo) [Example 151, (2R,4S,4aS)-rel-11-fluoro-8-(4-methoxypiperidine-1-carbonyl)-2,4-dimethyl-2,4,4a,6-tetrahydro-1H,1′H-spiro[isoxazolo[4,5-g][1,4]oxazino[4,3-a]quinoline-5,5′-pyrimidine]-2′,4′,6′(3′H)-trione] | 5500 | 
12 | CC(C)NC(=O)c1noc2c(Cl)c3c(nc12)CC1(C(=O)NC(=O)NC1=O)[C@H]1[C@H](C)O[C@H](C)CN31 (relative stereo) [Example 127, (2R,4S,4aS)-rel-Chloro-N-isopropyl-2,4-dimethyl-2′,4′,6′-trioxo-2,2′,3′,4,4a,4′,6,6′-octahydro-1H,1′H-spiro[isoxazolo[4,5-g][1,4]oxazino[4,3-a][1,5]naphthyridine-5,5′-pyrimidine]-8-carboxamide] |  | 19000
13 | C[C@@H]1CN2c3c(nc4c(-c5cncs5)noc4c3Cl)CC3(C(=O)NC(=O)NC3=O)[C@H]2[C@H](C)O1 (relative stereo) [Example 115, (2R,4S,4aS)-rel-11-chloro-2,4-dimethyl-8-(thiazol-5-yl)-2,4,4a,6-tetrahydro-1H,1′H-spiro[isoxazolo[4,5-g][1,4]oxazino[4,3-a][1,5]naphthyridine-5,5′-pyrimidine]-2′,4′,6′(3′H)-trione] | 1100 | 
14 | C[C@@H]1CN2c3c(cc4c(S(C)(=O)=O)noc4c3F)CC3(C(=O)NC(=O)NC3=O)[C@H]2[C@H](C)O1 (relative stereo) [Example 182, (2R,4S,4aS)-rel-11-fluoro-2,4-dimethyl-8-(methylsulfonyl)-1,2,4,4a-tetrahydro-2′H,6H-spiro[1,4-oxazino[4,3-a][1,2]oxazolo[4,5-g]quinoline-5,5′-pyrimidine]-2′,4′,6′(1′H,3′H)-trione] | 2400 | 
15 | CC(=O)Nc1ccn(-c2noc3c(F)c4c(cc23)CC2(C(=O)NC(=O)NC2=O)[C@H]2[C@H](C)O[C@H](C)CN42)n1 (relative stereo) [Example 28, N-{1-[(2R,4S,4aS)-rel-11-fluoro-2,4-dimethyl-2′,4′,6′-trioxo-1,1′,2,3′,4,4′,4a,6′-octahydro-2′H,6H-spiro[1,4-oxazino[4,3-a][1,2]oxazolo[4,5-g]quinoline-5,5′-pyrimidin]-8-yl]-1H-pyrazol-3-yl}acetamide] | 3100 | 
